Assay results from US8496928B2, “Method for preventing and treating cardiovascular diseases with BRCA1” (priority 2008, dated 2013).

Assays:
Format in all cases: cell-based, human
[1] = tested on: HUVECs; assay: Matrigel tube formation assay; conditions: TNFα 20 ng/ml
Protocol: (§1) In FIG. 24A ad-null or ad-BRCA1 infected cells were trypsinized and seeded in the presence and absence of TNFα (20 ng/ml) on coated inserts and a colorimetric assay was performed after 24 hours. Migration was calculated as a percentage of ad-null controls. (n=4, **p<0.01). In FIG. 24B, ad-null or ad-BRCA1 infected HUVECs were seeded onto matrigel in the presence or absence of TNFα (20 ng/ml). Images were taken 5 hours after seeding (original magnification 20×). In FIG. 24C data was semi-quantitatively analyzed by counting tubular structures in four fields per group. Data is presented as mean±SD (n=3 in triplicate, *p<0.05, **p<0.01). HUVECs infected with ad-null or ad-BRCA1 were treated for 24 hours with TNFα (20 ng/ml). VCAM1 (FIG. 24D, FIG. 24E), ICAM1 (FIG. 24F, FIG. 24G) and E-selectin (FIG. 24H, FIG. 24I) protein and transcript expression were determined in cell extracts via western blots and real-time PCR, respectively. GAPDH was used as a loading control for western blots and as a housekeeping gene for real-time PCR. Data are expressed as mean±SD (n=3, **p<0.01).
HUVEC-associated angiogenesis was measured with the In Vitro Angiogenesis Assay Kit from Chemicon. […] Tube formation was quantified by counting the number of tubes, branching points and network of tubes in randomly captured microscopic fields and by scoring the values for each type of structure. […]

[2] = tested on: eNOS, Akt, VEGFa; assay: eNOS/phospho-eNOS, Akt/phospho-Akt and VEGFa expression in HUVECs; conditions: TNFα treatment
Protocol: FIGS. 28A through 28E show eNOS/phospho-eNOS, Akt/phospho-Akt and VEGFa protein and RNA expression. Total protein and RNA were extracted from ad-null or ad-BRCA1 infected HUVECs treated thereafter with TNFα for 24 hours. As shown in FIGS. 28A and 28C, TNFα markedly elevated eNOS protein levels in BRCA1-overexpressing cells. […] Data are presented as mean±SEM of three independent experiments (*p<0.05, **p<0.01).
BRCA1 also promoted eNOS, phospho-eNOS, phospho-Akt and VEGFa expression. Since eNOS is essential for endothelial function, the potential regulation of endothelial nitric oxide synthase (eNOS) expression and phosphorylation by BRCA1 was examined via western blot analysis.
Western blot analysis was performed according to standard procedures. Proteins from whole cell lysates of HUVECs were resolved on SDS-polyacrylamide gels and transferred to nitrocellulose membranes (Bio-Rad). Membranes were probed with primary antibodies from Santa Cruz (BRCA1), Cell Signaling (p53, p21, Ser1177-phospho-eNOS, Akt, Ser473-phospho-Akt, cleaved caspase-3), Chemicon (GADD45a, GAPDH) and BD (eNOS). […]
Total RNA extracted from HUVECs were reverse transcribed for quantitative assessment of VCAM1, ICAM1, E-selectin and VEGFa expressions by real-time PCR using the primer pairs listed in Table 4.

[3] = tested on: GADD45, p21 and p53; assay: Western blot of GADD45, p21 and p53 in HUVECs; conditions: TNFα
Protocol: In FIG. 25A cell cycle progression was assessed after adenoviral (ad-null or ad-BRCA1) infection of HUVECs and 24 hours of TNFα (20 ng/ml) treatment followed by Propidium Iodide staining coupled with flow cytometry. […] GAPDH was used as a loading control.
Western blot analysis was performed according to standard procedures. Proteins from whole cell lysates of HUVECs were resolved on SDS-polyacrylamide gels and transferred to nitrocellulose membranes (Bio-Rad). Membranes were probed with primary antibodies from Santa Cruz (BRCA1), Cell Signaling (p53, p21, Ser1177-phospho-eNOS, Akt, Ser473-phospho-Akt, cleaved caspase-3), Chemicon (GADD45a, GAPDH) and BD (eNOS). Immunoblots were incubated with the appropriate horseradish peroxidase-associated secondary antibodies before signals were visualized by chemiluminescence via the ECL detection system (GE Healthcare).

[4] = tested on: HUVECs; assay: HUVEC migration assay; conditions: TNFα 20 ng/ml
Protocol: as §1, with “GAPDH was used as a loading control for western blots and as a housekeeping gene for real-time PCR.” left out
The migratory function of HUVECs was determined with the CytoSelect™ 24-Well Cell Migration Fluorometric Assay (Cell Biolabs). […] Following 12 hours at 37° C., migratory cells were dissociated from the underside of the insert membrane, lysed and stained with the Lysis Buffer/CyQuant® GR dye solution before being fluorescently quantified. […]

Substance: TNFα
- capacity to form vessel-like tubular structures [1]: reduced
- eNOS protein levels [2]: significant reduction
- protein levels of p53 and GADD45 [3]: no influence
- p21 protein levels ([3]; in the presence and absence of BRCA1 overexpression): significantly elevate
- migratory capacity of HUVECs [4]: significantly hampered
